Laboratory results: patent US20240190856A1, “MELANOCORTIN-4 RECEPTOR AGONIST” (LG CHEM, LTD., priority 2021, published 2024)
Structures can show the parent of a compound that is named as a salt.

Experiments:
Assay type in all cases: cell-based
[1] = target: T1, MC4R (melanocortin-4 receptor) (Homo sapiens, UniProt P32245); assay: Luciferase assay (CRE-LUC, HEK MC4R-Luc cells); details: 5 h incubation, concentration inducing 50% of each agonist's own maximum luminescence
T1 construct: expressed in transfected cells
Protocol: In order to measure the agonist ability against MC4R (melanocortin-4 receptor), a cell line that permanently expresses the luciferase gene (CRE-LUC) under the control of MC4R and CRE (cAMP response element) was established. After a mammalian cell expression vector (pCDNA3 (Neo)) (Invitrogen) containing the MC4R gene was prepared, human embryonic kidney (HEK) cell lines were transformed by using Lipofectamine 2000 (Invitrogen) together with a vector (pCRE-Luc)(Stratagen) expressing a luciferase gene (CRE-LUC) under the control of a cAMP response element (CRE). Transformed cell lines (HEK MC4R-Luc) were incubated in a 37° C. incubator in the presence of 5% CO2 for 24 hours by using Dulbecco's Modified Eagles Medium (DMEM) containing 10% Heat-Inactivated Fetal Bovine Serum (GIBCO/BRL). The cell lines were incubated for four days in the presence of Dulbecco's Modified Eagles Medium (DMEM) containing 10 ml of selection medium (10% Heat-Inactivated Fetal Bovine Serum (GIBCO/BRL), 100 unit/ml of penicillin (GIBCO/BRL), 100 unit/ml of streptomycin (GIBCO/BRL), 800 μg/ml of Geneticin (G418) (GIBCO/BRL). The process of removing cells killed by the selection medium by replacing the medium with 10 ml of a new selection medium was repeated three times, once every 4 days. Individual colonies formed by the finally selected and propagated clones were transferred under a microscope to a 24-well cell culture plate containing 1 ml of selection medium per well and incubated for 4 days. Forskolin (SIGMA) was treated to a final concentration of 10 μM, and then incubated for five hours in a 37° C. incubator in the presence of 5% CO2. Each well was treated with 50 μl of a Bright-Glo luciferase reagent (Promega) and left at room temperature for 15 minutes, and then the luminescence of each well was measured by using a luminometer (Victor).
HEK MC4R-Luc cells were added to each well of a 96-well luminometer cell culture plate (Costar) to a size of 2.5×10^4 cells in 100 μl of a culture medium and then incubated in a 37° C. incubator in the presence of 6% CO2 for 18 hours. […] Each well was treated with 50 μl of a Bright-Glo luciferase reagent (Promega) and left at room temperature for five minutes, and then the luminescence of each well was measured by using a luminometer (Victor). […] EC0.5 MSH is expressed as a concentration that induces 50% of the maximum amount of luminescence that can be induced by NDP-α-MSH, and EC50 is expressed as a concentration that induces 50% of the maximum amount of luminescence that can be induced by each agonist. The measurements were measured using statistical software (Prizm).

[2] = target: T2, MC4R (Homo sapiens, UniProt P32245); assay: cAMP assay (cAMP Hunter Gs-coupled CHO-K1 cell line); parameters: expressed in transfected cells; host or cells: CHO-K1 (cAMP Hunter Gs-coupled cell line); details: CHO-K1 cells overexpressing MC4R, 37° C. for 30 minutes
Text: The melanocortin receptor is a type of G-protein coupled receptor (GPCR), and the main role of G-protein is to activate secondary transducers to regulate cellular responses to many physiological stimuli through signal transduction. MC4R is a Gs-coupled receptor, and it is known that if MC4R interacts with an agonist, adenylate cyclase (AC) is activated to increase the concentration of cyclic AMP (cAMP), which is one of the secondary transducers in cells. Therefore, it is possible to evaluate the activity of melanocortin receptors by measuring the generation of cAMP signals.
After cAMP Hunter Gs-coupled cell lines (CHO-K1 cell line) in which each of MC1R, MC3R, MC4R and MC5R was overexpressed were established so that the increase in the cAMP level in cells due to agonist reaction was measurable, the cells were inoculated into each well of a white cell culture plate and incubated for 24 hours in a 37° C. incubator in the presence of 5% CO2. After the incubation, the medium was removed, and 15 μl of a 2:1 HBBS/10 mM HEPES:cAMP XS+Ab reagent was added. After 5 μl of the sample diluted 4 times with buffer was added, the vehicle concentration was set to 1%, and the MC4R agonist compound diluted at each step concentration was added, followed by reaction at 37° C. for 30 minutes. The activity (%) of each agonist compound is expressed as 100% ×(average RLU value of sample'average RLU value of vehicle control)/(average RLU value of max control−average RLU value of vehicle control), and the value was analyzed by CBIS data analysis suite (ChemInnovation, CA).
Target sequence in this assay (P32245 whole entry, species assumed): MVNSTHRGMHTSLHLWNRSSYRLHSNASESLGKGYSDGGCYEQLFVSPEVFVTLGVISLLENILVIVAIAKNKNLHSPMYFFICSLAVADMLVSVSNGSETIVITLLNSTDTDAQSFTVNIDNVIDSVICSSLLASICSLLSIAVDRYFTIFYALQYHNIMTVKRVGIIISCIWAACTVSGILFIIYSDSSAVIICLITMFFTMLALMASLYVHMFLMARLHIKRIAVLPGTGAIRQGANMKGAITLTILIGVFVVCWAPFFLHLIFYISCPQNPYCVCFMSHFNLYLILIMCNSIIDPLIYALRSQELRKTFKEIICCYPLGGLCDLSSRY

[3] = target: T2, MC4R; assay: β-arrestin assay (Pathhunter eXpress β-arrestin U2OS cell line); parameters: expressed in transfected cells; host or cells: U2OS (Pathhunter eXpress β-arrestin cell line); details: U2OS cells, PK-tagged MC4R and EA-tagged β-arrestin, 37° C. for 90 minutes
Text: The melanocortin receptor is a type of G-protein coupled receptor (GPCR) and regulates various physiological responses by transducing signals from many neurotransmitters. When GPCR is phosphorylated, β-arrestin is bound to the phosphorylated part of the receptor and plays an important role in activating various signaling pathways in cells through interaction with other proteins. It is known that, when the melanocortin receptor interacts with an agonist, β-arrestin is mobilized and is involved in the β-arrestin-mediated signaling pathway. Therefore, the activity of the melanocortin receptor can be evaluated through the measurement of β-arrestin.
A Pathhunter eXpress β-arrestin cell line (U2OS cell line) in which Prolink (PK)-tagged MC1R, MC3R, MC4R, MC5R and Enzyme acceptor (EA)-tagged β-arrestin were expressed together was established. When the MCR-PK portion of this cell line is activated, β-arrestin-EA is mobilized, and enzyme acceptor (EA) and Prolink (PK), which are the β-galactosidase enzyme fragments, interact. The activated enzyme hydrolyzes the substrate by β-galactosidase activity to produce a chemiluminescent signal, so that the activity can be measured. After the Pathhunter eXpress β-arrestin cell line (U2OS cell line) was incubated, the cells were inoculated into each well of the cell culture plate and incubated for 48 hours in a 37° C. incubator in the presence of 5% CO2. After the incubation, 5 μl of the sample diluted 5 times with buffer was added, the vehicle concentration was set to 1%, and the MC4R agonist compound diluted at each step concentration was added, followed by reaction at 37° C. for 90 minutes. The activity (%) of each agonist compound is expressed as 100% ×(average RLU value of sample−average RLU value of vehicle control)/(average maximum value of control ligand−average RLU value of vehicle control), and the value was analyzed by CBIS data analysis suite (ChemInnovation, CA).
Target sequence in this assay (P32245 whole entry, species assumed): as above
Target sequence in this assay (P32121 whole entry partner, species assumed): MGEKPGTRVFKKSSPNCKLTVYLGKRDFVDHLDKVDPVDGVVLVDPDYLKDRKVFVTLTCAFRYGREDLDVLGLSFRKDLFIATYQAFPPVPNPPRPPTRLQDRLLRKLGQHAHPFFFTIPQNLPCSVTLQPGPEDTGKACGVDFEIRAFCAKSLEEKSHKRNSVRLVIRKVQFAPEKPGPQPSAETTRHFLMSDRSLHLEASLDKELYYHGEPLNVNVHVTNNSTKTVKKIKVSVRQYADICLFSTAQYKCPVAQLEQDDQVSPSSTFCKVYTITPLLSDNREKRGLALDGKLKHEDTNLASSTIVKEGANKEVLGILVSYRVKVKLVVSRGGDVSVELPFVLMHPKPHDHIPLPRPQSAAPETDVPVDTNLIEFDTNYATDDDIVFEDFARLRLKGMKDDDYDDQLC

T1 sequence (P32245 whole entry, species assumed): as the sequence (P32245 whole entry, species assumed) above

SMILES	EC50 [1] [nM]	EC50 [2] [nM]	EC50 [3] [nM]
CC(C)C(=O)N([C@H]1C[C@@H](C(=O)N2CCOCC2)N(C(=O)[C@@H]2CN(C(C)(C)C)C[C@H]2c2ccc(F)cc2F)C1)[C@H]1CC[C@@H](C)CC1 [Example 2, N-((3S,5S)-1-((3S,4R)-1-(tert-butyl)-4-(2,4-difluorophenyl)pyrrolidine-3-carbonyl)-5-(morpholine-4-carbonyl)pyrrolidin-3-yl)-N-((1s,4R)-4-methylcyclohexyl)isobutyramide hydrochloride]	2.47	59.6	15
CC(C)C(=O)N([C@H]1C[C@@H](C(=O)N2CCOCC2)N(C(=O)[C@@H]2CN(C(C)(C)C)C[C@H]2c2ccc(Cl)cc2F)C1)[C@H]1CC[C@@H](C)CC1 [Example 3, N-((3S,5S)-1-((3S,4R)-1-(tert-butyl)-4-(4-chloro-2-fluorophenyl)pyrrolidine-3-carbonyl)-5-(morpholine-4-carbonyl)pyrrolidin-3-yl)-N-((1s,4R)-4-methylcyclohexyl)isobutyramide hydrochloride]	0.922	49.6	4.5
CC1(C)CCC(N(C(=O)C(C)(C)C)[C@H]2C[C@@H](C(=O)N3CCOCC3)N(C(=O)[C@@H]3CN(C(C)(C)C)C[C@H]3c3ccc(Cl)cc3)C2)CC1 [Example 6, N-((3S,5S)-1-((3S,4R)-1-(tert-butyl)-4-(4-chlorophenyl)pyrrolidine-3-carbonyl)-5-(morpholine-4-carbonyl)pyrrolidin-3-yl)-N-(4,4-dimethylcyclohexyl)pivalamide hydrochloride]	4.04	51.4	13

These reach a lower EC50 [1]. Values come first.

EC50 [1] [nM]	EC50 [2] [nM]	EC50 [3] [nM]	SMILES
0.629	58.9	8.02	CC(C)(C)C(=O)N([C@H]1C[C@@H](C(=O)N2CCOCC2)N(C(=O)[C@@H]2CN(C(C)(C)C)C[C@H]2c2ccc(F)cc2F)C1)[C@H]1CC[C@@H](C)CC1 [Example 1, N-((3S,5S)-1-((3S,4R)-1-(tert-butyl)-4-(2,4-difluorophenyl)pyrrolidine-3-carbonyl)-5-(morpholine-4-carbonyl)pyrrolidin-3-yl)-N-((1s,4R)-4-methylcyclohexyl)pivalamide hydrochloride]
0.555	26.2	4.2	CC(C)(C)C(=O)N([C@H]1C[C@@H](C(=O)N2CCOCC2)N(C(=O)[C@@H]2CN(C(C)(C)C)C[C@H]2c2ccc(Cl)cc2F)C1)[C@H]1CC[C@@H](C)CC1 [Example 4, N-((3S,5S)-1-((3S,4R)-1-(tert-butyl)-4-(4-chloro-2-fluorophenyl)pyrrolidine-3-carbonyl)-5-(morpholine-4-carbonyl)pyrrolidin-3-yl)-N-((1s,4R)-4-methylcyclohexyl)pivalamide hydrochloride]
